# Tests used:
# Staphylococcus aureus = assay: Antibacterial activity, serial tube dilution method; format: cell-based; conditions: Staphylococcus aureus; Gram-positive; serial tube dilution; read-out: MIC S aureus
# Method: (§1) The target chalcones (17–31) and pyrazolines (32–46) were tested for their antimicrobial activities by serial tube dilution method against two types of bacterial and fungal strains (Table 1 and Table 2). The bacterial strains used for the testing, including Gram-positive Staphylococcus aureus and Gram-negative Pseudomonas aeruginosa, whereas the fungal strains employed were Aspergillus niger and Candida tropicalis.
# (§2) The antibacterial and antifungal activity of the novel chalcones (17 to 31) and dihydropyrazoles (32 to 46) against the selected bacterial and fungal strains was assessed by following the procedure described in our previous paper.
# Pseudomonas aeruginosa = assay: as above; format: cell-based; conditions: Pseudomonas aeruginosa; Gram-negative; serial tube dilution; read-out: MIC P aeruginosa
# Method: as §1, §2
# [1] = DPPH free radical scavenging assay; conditions: antioxidant activity; average of three independent experiments
# Method: The antioxidant activity of all 30 compounds was assessed using 1,1-diphenyl-2-picrylhydrazine (DPPH) free radical scavenging assay and the results are the average of three independent experiments (Table 3). Gallic acid was employed as a positive control. […] In the disubstituted series (20–25), compound 25 with substitutions at position 3 and 5 on the phenyl ring gave the highest activity of 9 µg/mL.
# The purpose of this study was to evaluate the antioxidant activity of chalcones and pyrazolines using the DPPH free radical assay. The percentage of antioxidant activity (AA%) of all the compounds was assessed by the DPPH free radical assay. The measurement of the DPPH radical scavenging activity was performed according to methodology described by Brand-Williams et al. The samples were reacted with the stable DPPH radical in an ethanol solution. A 0.1 mM solution of DPPH was prepared by dissolving DPPH in methanol. Gallic acid was taken as a reference standard and different concentrations of test samples (5–100 µg/mL) and standard (1.0, 2.5, and 5.0 µg/mL) were prepared using methanol. One milliliter of 0.1 mM DPPH solution was added to 3 mL of all concentrations of test samples and standard separately. These mixtures were kept in dark for about 30 min and the absorbance was measured at 517 nm. The capability to scavenge the DPPH radical was calculated using the formula:(1) DPPH scavanged (%)= Absorbance of control−Absorbance of sample/Absorbance of control∗100 when DPPH reacted with an antioxidant compound and was reduced, the change in color (from deep violet to light yellow) was read [Absorbance (Abs)] at 517 nm after […] of reaction using a UV-VIS spectrophotometer.
# [2] = tested on: prostate cancer cell line, DU-145; assay: MTT assay anticancer activity; format: cell-based; conditions: for IC50: Homo sapiens, MTT assay, mean ± SD (n = 3); for Anticancer potency MIC: given as MIC in text/Figure 3
# Method: All the 30 compounds were evaluated for their anticancer potency against the prostate cancer cell line, DU-145, employing colorimetric tetrazolium dye (MTT) assay. […] Among the disubstituted series 20–25, substitution at position 3 and 4 (compound 24) produced the best activity but was lower than the standard. […] Similar phenomena can be seen among the dihydropyrazole series.
# The in vitro anticancer activity of chalcones (17 to 31) and dihydropyrazoles (32 to 46) was evaluated by the Mosmann’s MTT assay as described previously.
# Human Normal Cells (L02) = assay: MTT assay toxicity on normal cells; format: cell-based
# Candida tropicalis = assay: Antifungal activity, serial tube dilution method; format: cell-based; conditions: read-out: MIC C tropicalis
# Method: as §1, §2
# Aspergillus niger = assay: Antifungal activity, serial tube dilution method; format: cell-based
# Method: as §1, §2
# [3] = tested on: Staphylococcus aureus and Pseudomonas aeruginosa; assay: Antibacterial activity (strain not named); format: cell-based
# Method: as §1, §2
# [4] = tested on: Aspergillus niger and Candida tropicalis; assay: Antifungal activity (strain not named); format: cell-based; conditions: text/figure value, strain not named
# Method: as §1, §2
# [5] = text/figure value, strain not named
MIC (Staphylococcus aureus),MIC (Pseudomonas aeruginosa),DPPH assay IC50 [1],IC50 [2],MIC (Candida tropicalis),MIC (Aspergillus niger),"MIC [3, 5]","antibacterial MIC [3, 5]",MIC [4],Anticancer potency MIC [2],SMILES,IC50 (Human Normal Cells (L02)),fold improvement of antibacterial activity vs. 41 ([3]; 45 (MIC 8) vs. 41 (MIC 64))
2 µg/mL,2 µg/mL,–,–,–,–,–,–,–,–,"O=C(O)c1cn(C2CC2)c2cc(N3CCNCC3)c(F)cc2c1=O [Ciprofloxacin, reference compound]",–,–
4 µg/mL,8 µg/mL,33 ± 1 µg/mL,32 ± 2 µg/mL,8 µg/mL,8 µg/mL,–,–,–,–,COc1ccc(/C=C/C(=O)c2ccno2)cc1 [Compound 17],> 40 µg/mL,–
4 µg/mL,4 µg/mL,32 ± 2 µg/mL,36 ± 1 µg/mL,16 µg/mL,8 µg/mL,–,–,–,–,COc1ccccc1/C=C/C(=O)c1ccno1 [Compound 19],> 40 µg/mL,–
32 µg/mL,64 µg/mL,24 ± 1 µg/mL,22 ± 1 µg/mL,32 µg/mL,64 µg/mL,–,–,–,–,COc1cccc(/C=C/C(=O)c2ccno2)c1OC [Compound 20],> 40 µg/mL,–
2 µg/mL,4 µg/mL,18 ± 2 µg/mL,29 ± 2 µg/mL,16 µg/mL,8 µg/mL,–,–,–,–,COc1ccc(/C=C/C(=O)c2ccno2)c(OC)c1 [Compound 21],> 40 µg/mL,–
32 µg/mL,32 µg/mL,26 ± 2 µg/mL,38 ± 1 µg/mL,64 µg/mL,64 µg/mL,–,–,–,–,COc1ccc(OC)c(/C=C/C(=O)c2ccno2)c1 [Compound 22],> 40 µg/mL,–
4 µg/mL,4 µg/mL,16 ± 1 µg/mL,33 ± 2 µg/mL,4 µg/mL,4 µg/mL,–,–,–,–,COc1cccc(OC)c1/C=C/C(=O)c1ccno1 [Compound 23],> 40 µg/mL,–
64 µg/mL,32 µg/mL,29 ± 1 µg/mL,6 ± 2 µg/mL,64 µg/mL,128 µg/mL,–,–,–,–,COc1ccc(/C=C/C(=O)c2ccno2)cc1OC [Compound 24],> 40 µg/mL,–
16 µg/mL,16 µg/mL,7 ± 2 µg/mL,26 ± 3 µg/mL,32 µg/mL,32 µg/mL,–,–,–,–,COc1cc(OC)c(OC)cc1/C=C/C(=O)c1ccno1 [Compound 27],> 40 µg/mL,–
1 µg/mL,1 µg/mL,5 ± 1 µg/mL,30 ± 2 µg/mL,2 µg/mL,2 µg/mL,1 µg/mL,1 µg/mL,2 µg/mL,–,COc1cc(OC)c(/C=C/C(=O)c2ccno2)c(OC)c1 [Compound 28],> 40 µg/mL,–
4 µg/mL,4 µg/mL,45 ± 2 µg/mL,5 ± 2 µg/mL,16 µg/mL,16 µg/mL,–,–,–,–,COc1ccc(/C=C/C(=O)c2ccno2)c(F)c1OC [Compound 30],> 40 µg/mL,–
2 µg/mL,2 µg/mL,48 ± 1 µg/mL,16 ± 2 µg/mL,4 µg/mL,4 µg/mL,–,–,–,–,COc1cc(Cl)c(/C=C/C(=O)c2ccno2)c(OC)c1 [Compound 31],> 40 µg/mL,–
16 µg/mL,16 µg/mL,44 ± 1 µg/mL,28 ± 1 µg/mL,4 µg/mL,4 µg/mL,–,–,4 µg/mL,–,COc1ccc(C2CC(c3ccno3)=NN2C(N)=O)cc1 (stereo not shown) [Compound 32],> 40 µg/mL,–
128 µg/mL,128 µg/mL,51 ± 2 µg/mL,18 ± 2 µg/mL,64 µg/mL,64 µg/mL,–,–,–,–,COc1cccc(C2CC(c3ccno3)=NN2C(N)=O)c1 (stereo not shown) [Compound 33],> 40 µg/mL,–
16 µg/mL,16 µg/mL,38 ± 2 µg/mL,32 ± 2 µg/mL,8 µg/mL,8 µg/mL,–,–,8 µg/mL,–,COc1ccccc1C1CC(c2ccno2)=NN1C(N)=O (stereo not shown) [Compound 34],> 40 µg/mL,–
64 µg/mL,64 µg/mL,32 ± 1 µg/mL,16 ± 2 µg/mL,16 µg/mL,16 µg/mL,–,–,–,–,COc1cccc(C2CC(c3ccno3)=NN2C(N)=O)c1OC (stereo not shown) [Compound 35],> 40 µg/mL,–
8 µg/mL,8 µg/mL,25 ± 2 µg/mL,26 ± 2 µg/mL,8 µg/mL,4 µg/mL,–,–,–,–,COc1ccc(C2CC(c3ccno3)=NN2C(N)=O)c(OC)c1 (stereo not shown) [Compound 36],> 40 µg/mL,–
64 µg/mL,32 µg/mL,39 ± 2 µg/mL,31 ± 2 µg/mL,32 µg/mL,32 µg/mL,–,–,–,–,COc1ccc(OC)c(C2CC(c3ccno3)=NN2C(N)=O)c1 (stereo not shown) [Compound 37],> 40 µg/mL,–
32 µg/mL,16 µg/mL,28 ± 1 µg/mL,20 ± 2 µg/mL,2 µg/mL,2 µg/mL,–,–,2 µg/mL,–,COc1cccc(OC)c1C1CC(c2ccno2)=NN1C(N)=O (stereo not shown) [Compound 38],> 40 µg/mL,–
128 µg/mL,64 µg/mL,49 ± 1 µg/mL,4 ± 2 µg/mL,32 µg/mL,32 µg/mL,–,–,–,4 µg/mL,COc1ccc(C2CC(c3ccno3)=NN2C(N)=O)cc1OC (stereo not shown) [Compound 39],> 40 µg/mL,–
256 µg/mL,256 µg/mL,12 ± 1 µg/mL,8 ± 2 µg/mL,64 µg/mL,64 µg/mL,–,–,–,–,COc1cc(OC)cc(C2CC(c3ccno3)=NN2C(N)=O)c1 (stereo not shown) [Compound 40],> 40 µg/mL,–
64 µg/mL,128 µg/mL,8 ± 1 µg/mL,9 ± 1 µg/mL,64 µg/mL,64 µg/mL,64 µg/mL,–,–,–,COc1ccc(C2CC(c3ccno3)=NN2C(N)=O)c(OC)c1OC (stereo not shown) [Compound 41],> 40 µg/mL,–
32 µg/mL,16 µg/mL,10 ± 2 µg/mL,18 ± 2 µg/mL,16 µg/mL,16 µg/mL,–,–,–,–,COc1cc(OC)c(C2CC(c3ccno3)=NN2C(N)=O)cc1OC (stereo not shown) [Compound 42],> 40 µg/mL,–
64 µg/mL,256 µg/mL,12 ± 2 µg/mL,5 ± 2 µg/mL,16 µg/mL,16 µg/mL,–,–,–,–,COc1cc(C2CC(c3ccno3)=NN2C(N)=O)cc(OC)c1OC (stereo not shown) [Compound 44],> 40 µg/mL,–
8 µg/mL,8 µg/mL,55 ± 2 µg/mL,2 ± 1 µg/mL,1 µg/mL,0.5 µg/mL,8 µg/mL,–,–,2 µg/mL,COc1ccc(C2CC(c3ccno3)=NN2C(N)=O)c(F)c1OC (stereo not shown) [Compound 45],> 40 µg/mL,8 fold
–,–,–,5 µg/mL,–,–,–,–,–,5 µg/mL,"CC(=O)O[C@@]12CO[C@@H]1C[C@H](O)[C@@]1(C)C(=O)[C@H](O)C3=C(C)[C@@H](OC(=O)[C@H](O)[C@@H](NC(=O)OC(C)(C)C)c4ccccc4)C[C@@](O)([C@@H](OC(=O)c4ccccc4)[C@H]21)C3(C)C [Docetaxel, reference compound]",–,–
–,–,–,–,1 µg/mL,1 µg/mL,–,–,1 µg/mL,–,"OC(Cn1cncn1)(Cn1cncn1)c1ccc(F)cc1F [Fluconazole, reference compound]",–,–
–,–,Gallic acid 5 ± 1 µg/mL,–,–,–,–,–,–,–,"O=C(O)c1cc(O)c(O)c(O)c1 [Gallic acid, reference compound]",–,–
